From ChEMBL document CHEMBL5584339, “Design, Synthesis, and Evaluation of the Antitubercular Activity of 5-Phenyl Substituted-5, 6-dihydropyrido[2, 3-d]pyrimidine-4, 7(3H, 8H)-dione Compounds” (J Med Chem, 2024)
≈ marks a conversion by molar mass, not a printed value. Calls of active or inactive are those of the source. The rule behind the calls is not given here.

Columns and labels:
[1] = Selectivity index, ratio of IC50 for african green monkey Vero cells to IC50 for Mycobacterium tuberculosis H37Rv; type: toxicity; conditions: read-out: Ratio IC50
[2] = Cytotoxicity against african green monkey Vero cells incubated for 48 hrs by CCK8 assay; type: toxicity, cell-based, Chlorocebus sabaeus
[3] = test system: Mycobacterium tuberculosis; experiment: Antitubercular activity against Mycobacterium tuberculosis H37Rv incubated for 7 days by alamar blue assay; type: functional; conditions: 168 h, time 7 day
[4] = Metabolic stability in human liver microsomes assessed as half-life at 2 uM preincubated for 60 mins followed by NADPH addition and measured upto 60 mins by LC-MS analysis; type: ADME, Microsome; conditions: time < 120 min
[5] = Metabolic stability in human liver microsomes assessed as substrate remaining at 2 uM preincubated for 60 mins followed by NADPH addition and measured upto 60 mins by LC-MS analysis; type: ADME, Microsome; conditions: time < 120 min, read-out: Stability
[6] = Metabolic stability in mouse liver microsomes assessed as half-life at 2 uM preincubated for 60 mins followed by NADPH addition and measured upto 60 mins by LC-MS analysis; type: ADME, Microsome; conditions: time < 120 min
[7] = Metabolic stability in mouse liver microsomes assessed as substrate remaining at 2 uM preincubated for 60 mins followed by NADPH addition and measured upto 60 mins by LC-MS analysis; type: ADME, Microsome; conditions: time < 120 min, read-out: Stability
[8] = Metabolic stability in mouse liver microsomes assessed as intrinsic clearance per mg protein at 2 uM preincubated for 60 mins followed by NADPH addition and measured upto 60 mins by LC-MS analysis; type: ADME, Microsome; conditions: time < 120 min, read-out: CLH
[9] = Cytotoxicity against HK-2 cells incubated for 48 hrs by CCK8 assay; type: toxicity, cell-based; conditions: human
[10] = Metabolic stability in human liver microsomes assessed as intrinsic clearance per mg protein at 2 uM preincubated for 60 mins followed by NADPH addition and measured upto 60 mins by LC-MS analysis; type: ADME, Microsome; conditions: time < 120 min, read-out: CLH
[11] = test system: Mycobacterium tuberculosis; experiment: Binding affinity to Mycobacterium tuberculosis AccD5 at 10 uM by SPR analysis

Row | SMILES | selectivity ratio [1] | IC50 at 48 h [2] | MIC [3] | further results
1 | CCCSc1nc2c(c(=O)[nH]1)C(c1ccc(OCC)cc1)CC(=O)N2 (stereo unspecified) | 174 | 60.1 µg/mL (≈ 167 µM) | 0.35 µg/mL (≈ 0.974 µM) | –
2 | CCCSc1nc2c(c(=O)[nH]1)C(c1cc(OC)c(OC)c(OC)c1)CC(=O)N2 (stereo unspecified) | – | > 100 µg/mL | > 10 µg/mL | –
3 | CCCSc1nc2c(c(=O)[nH]1)C(c1ccccc1)CC(=O)N2 (stereo unspecified) | 3.3 | 31.9 µg/mL (≈ 101 µM) | 9.66 µg/mL (≈ 30.6 µM) | –
4 | CCCSc1nc2c(c(=O)[nH]1)C(c1ccc(OC(C)C)cc1)CC(=O)N2 (stereo unspecified) | 11.7 | 24.9 µg/mL (≈ 66.7 µM) | 2.12 µg/mL (≈ 5.68 µM) | –
5 | COc1ccc(C2CC(=O)Nc3nc(SC)[nH]c(=O)c32)cc1O (stereo unspecified) | – | > 100 µg/mL | > 10 µg/mL | –
6 | CCCCSc1nc2c(c(=O)[nH]1)C(c1ccc(OC)c(O)c1)CC(=O)N2 (stereo unspecified) | 12.6 | 40.1 µg/mL (≈ 107 µM) | 3.19 µg/mL (≈ 8.5 µM) | –
7 | CCCSc1nc2c(c(=O)[nH]1)C(c1ccc(OC)cc1N)CC(=O)N2 (stereo unspecified) | – | > 100 µg/mL | > 10 µg/mL | –
8 | CCCSc1nc2c(c(=O)n1C)C(c1ccc(OC)cc1)CC(=O)N2C (stereo unspecified) | – | 46.5 µg/mL (≈ 124 µM) | > 10 µg/mL | –
9 | CCCS(=O)(=O)c1nc2c(c(=O)[nH]1)[C@@H](c1ccc(OC)cc1[N+](=O)[O-])CC(=O)N2 | – | – | > 32 µg/mL | –
10 | CCC[S+]([O-])c1nc2c(c(=O)[nH]1)[C@@H](c1ccc(OC)cc1)CC(=O)N2 (stereo partly specified) | – | – | > 32 µg/mL | –
11 | CCC[S+]([O-])c1nc2c(c(=O)[nH]1)[C@H](c1ccc(OC)cc1[N+](=O)[O-])CC(=O)N2 (stereo partly specified) | – | – | > 32 µg/mL | –
12 | C=CCSc1nc2c(c(=O)[nH]1)C(c1ccc(OC)cc1[N+](=O)[O-])CC(=O)N2 (stereo unspecified) | > 200 | > 100 µg/mL | 0.5 µg/mL (≈ 1.29 µM) | –
13 | C=CCSc1nc2c(c(=O)[nH]1)C(c1ccc(OCC)cc1)CC(=O)N2 (stereo unspecified) | > 500 | > 100 µg/mL | 1 µg/mL (≈ 2.8 µM) | –
14 | CCCCSc1nc2c(c(=O)[nH]1)C(c1ccc(OCCC)cc1)CC(=O)N2 (stereo unspecified) | – | 57 µg/mL (≈ 147 µM) | > 10 µg/mL | –
15 | CCCSc1nc2c(c(=O)[nH]1)C(c1ccc(OCC(C)C)cc1)CC(=O)N2 (stereo unspecified) | – | 41.5 µg/mL (≈ 107 µM) | > 10 µg/mL | –
16 | CCCSc1nc2c(c(=O)[nH]1)C(c1ccc(OC)cc1O)CC(=O)N2 (stereo unspecified) | 56.9 | 54.1 µg/mL (≈ 150 µM) | 0.95 µg/mL (≈ 2.63 µM) | –
17 | CCCOc1ccc(C2CC(=O)Nc3nc(SCCC)[nH]c(=O)c32)c(O)c1 (stereo unspecified) | 35.6 | 43.9 µg/mL (≈ 113 µM) | 1.23 µg/mL (≈ 3.16 µM) | –
18 | CCCSc1nc2c(c(=O)[nH]1)C(c1ccccc1)CC(=O)N2C (stereo unspecified) | < 5.2 | 52.5 µg/mL (≈ 159 µM) | > 10 µg/mL | –
19 | C=CCSc1nc2c(c(=O)[nH]1)C(c1ccc(OC)c(O)c1)CC(=O)N2 (stereo unspecified) | > 45.7 | > 100 µg/mL | 2.19 µg/mL (≈ 6.09 µM) | –
20 | CCCSc1nc2c(c(=O)[nH]1)C(c1ccc(OC)cc1[N+](=O)[O-])CC(=O)N2 (racemic) | > 833 | > 100 µg/mL | 0.12 µg/mL (≈ 0.307 µM) | half-life at 2 µM [4]: 2.07 h; remaining at 1 h, 2 µM [5]: 73.7%; half-life at 2 µM [6]: 1.62 h; remaining at 1 h, 2 µM [7]: 66.8%; microsomal CLint at 2 µM [8]: 14.2 µL/min/mg; IC50 at 48 h [9]: > 100 µg/mL; microsomal CLint at 2 µM [10]: 11.2 µL/min/mg
21 | CCCSc1nc2c(c(=O)[nH]1)C(c1ccc(OC)c([N+](=O)[O-])c1)CC(=O)N2 (stereo unspecified) | 14 | 67.5 µg/mL (≈ 173 µM) | 4.84 µg/mL (≈ 12.4 µM) | –
22 | CCCS(=O)(=O)c1nc2c(c(=O)[nH]1)[C@@H](c1ccc(OC)cc1)CC(=O)N2 | – | – | > 32 µg/mL | –
23 | CCCSc1nc2c(c(=O)[nH]1)[C@H](c1ccc(OC)cc1[N+](=O)[O-])CC(=O)N2 | – | > 64 µg/mL | 7.72 µg/mL (≈ 19.8 µM) | Activity [11]: inactive; IC50 at 48 h [9]: 56.2 µg/mL (≈ 144 µM)
24 | CCC[S+]([O-])c1nc2c(c(=O)[nH]1)[C@@H](c1ccc(OC)cc1[N+](=O)[O-])CC(=O)N2 (stereo partly specified) | – | – | > 32 µg/mL | –

Row | SMILES | selectivity ratio [1] | IC50 at 48 h [2] | MIC [3] | further results
25 | CCCSc1nc2c(c(=O)[nH]1)C(c1ccc(OC)cc1)CC(=O)N2 (racemic) | 93 | 14.5 µg/mL (≈ 42 µM) | 0.16 µg/mL (≈ 0.463 µM) | half-life at 2 µM [4]: 3.95 h; remaining at 1 h, 2 µM [5]: 83.4%; half-life at 2 µM [6]: 9.33 h; remaining at 1 h, 2 µM [7]: 87.6%; microsomal CLint at 2 µM [8]: 2.48 µL/min/mg; IC50 at 48 h [9]: 24.8 µg/mL (≈ 71.7 µM); microsomal CLint at 2 µM [10]: 5.85 µL/min/mg
26 | CCCOc1ccc(C2CC(=O)Nc3nc(SC)[nH]c(=O)c32)cc1 (stereo unspecified) | < 5.4 | 53.5 µg/mL (≈ 155 µM) | > 10 µg/mL | –
27 | C=CCSc1nc2c(c(=O)[nH]1)C(c1ccc(OC)cc1)CC(=O)N2 (stereo unspecified) | 82.2 | 41.1 µg/mL (≈ 120 µM) | 0.5 µg/mL (≈ 1.46 µM) | –
28 | CCCOc1ccc(C2CC(=O)Nc3nc(SCCC)[nH]c(=O)c32)cc1 (stereo unspecified) | 12.1 | 12.1 µg/mL (≈ 32.3 µM) | 1 µg/mL (≈ 2.68 µM) | –
29 | CCCS(=O)(=O)c1nc2c(c(=O)[nH]1)[C@H](c1ccc(OC)cc1[N+](=O)[O-])CC(=O)N2 | – | – | > 32 µg/mL | –
30 | CCCCSc1nc2c(c(=O)[nH]1)C(c1ccc(OC)cc1O)CC(=O)N2 (stereo unspecified) | 8.87 | 41.2 µg/mL (≈ 110 µM) | 4.65 µg/mL (≈ 12.4 µM) | –
31 | CCCSc1nc2c(c(=O)[nH]1)C(c1ccc(OC)c(OC)c1)CC(=O)N2 (stereo unspecified) | < 2 | 20.4 µg/mL (≈ 54.5 µM) | > 10 µg/mL | –
32 | CCC[S+]([O-])c1nc2c(c(=O)[nH]1)[C@H](c1ccc(OC)cc1)CC(=O)N2 (stereo partly specified) | – | – | > 32 µg/mL | –
33 | CCCSc1nc2c(c(=O)n1C)C(c1ccccc1)CC(=O)N2C (stereo unspecified) | – | – | > 10 µg/mL | –
34 | CCCS(=O)(=O)c1nc2c(c(=O)[nH]1)[C@H](c1ccc(OC)cc1)CC(=O)N2 | – | – | > 32 µg/mL | –
35 | C=CCSc1nc2c(c(=O)[nH]1)C(c1ccc(OC)cc1O)CC(=O)N2 (stereo unspecified) | > 101 | > 100 µg/mL | 0.99 µg/mL (≈ 2.75 µM) | –
36 | C=CCSc1nc2c(c(=O)[nH]1)C(c1ccc(OCCC)cc1)CC(=O)N2 (stereo unspecified) | 2.31 | 4.57 µg/mL (≈ 12.3 µM) | 1.98 µg/mL (≈ 5.33 µM) | –
37 | CCCSc1nc2c(c(=O)[nH]1)C(c1ccc(OC)c(O)c1)CC(=O)N2 (stereo unspecified) | > 82.1 | > 100 µg/mL | 1.22 µg/mL (≈ 3.38 µM) | –
38 | CCCSc1nc2c(c(=O)[nH]1)C(c1ccc(OC)c(N)c1)CC(=O)N2 (stereo unspecified) | > 50 | > 100 µg/mL | 2 µg/mL (≈ 5.55 µM) | –
39 | CCCOc1ccc(C2CC(=O)Nc3nc(SCCC)[nH]c(=O)c32)cc1O (stereo unspecified) | 21 | 99.3 µg/mL (≈ 255 µM) | 4.73 µg/mL (≈ 12.1 µM) | –
40 | CCCSc1nc2c(c(=O)[nH]1)C(c1ccc(OC)c(O)c1O)CC(=O)N2 (stereo unspecified) | – | 27.5 µg/mL (≈ 72.9 µM) | > 10 µg/mL | –
41 | CCCCCCCOc1ccc(C2CC(=O)Nc3nc(SCCC)[nH]c(=O)c32)cc1 (stereo unspecified) | – | 36.6 µg/mL (≈ 85.1 µM) | > 10 µg/mL | –
42 | NNC(=O)c1ccncc1 [ISONIAZID] | > 2000 | > 100 µg/mL | 0.05 µg/mL (≈ 0.365 µM) | –
43 | CCCSc1nc2c(c(=O)[nH]1)C(c1ccc(OC)cc1)CC(=O)N2C (stereo unspecified) | – | 53.6 µg/mL (≈ 149 µM) | > 10 µg/mL | –
44 | CCCSc1nc2c(c(=O)[nH]1)[C@H](c1ccc(OC)cc1)CC(=O)N2 | – | > 64 µg/mL | 7.83 µg/mL (≈ 22.7 µM) | IC50 at 48 h [9]: 73.1 µg/mL (≈ 212 µM)
45 | COc1ccc(C2CC(=O)Nc3nc(SC)[nH]c(=O)c32)cc1 (stereo unspecified) | 3.32 | 30.7 µg/mL (≈ 96.6 µM) | 9.24 µg/mL (≈ 29.1 µM) | –
46 | COc1ccc(C2CC(=O)Nc3nc(SC(C)C)[nH]c(=O)c32)cc1 (stereo unspecified) | > 44.1 | > 100 µg/mL | 2.27 µg/mL (≈ 6.57 µM) | –
47 | CCCCSc1nc2c(c(=O)[nH]1)C(c1ccc(OC)cc1)CC(=O)N2 (stereo unspecified) | 93.1 | 46.3 µg/mL (≈ 129 µM) | 0.5 µg/mL (≈ 1.39 µM) | –
48 | COc1ccc(C2CC(=O)Nc3nc(SC)[nH]c(=O)c32)c(O)c1 (stereo unspecified) | – | > 100 µg/mL | > 10 µg/mL | –
